Values quoted from earlier work as cited in US20140100183A1, “CENTRAL ADMINISTRATION OF STABLE FORMULATIONS OF THERAPEUTIC AGENTS FOR CNS CONDITIONS” (The Regents of the University of Colorado, a body corporate, priority 2006, published 2014).
Where two headings read alike, the source gives them in different places.

Conditions: cited from earlier work; for Comments: solubility: qualitative, solvents as given in the source

Molecule | Comments: solubility | further results
Clc1ccc2c(c1)C(N1CCNCC1)=Nc1ccccc1O2 [AMOXAPINE, 2-Chloro-11-(1-piperazinyl)dibenz(b,f)(1,4) oxazepine] | Soluble 1 in 460 of water, 1 in 15 of boiling water, 1 in 3 of alcohol, 1 in 45 of chloroform, 1 in 3 of ether, and 1 in 135 of benzene. | –
CCN(CC)C(=S)SSC(=S)N(CC)CC [ANTABUSE, bis (diethylthiocarbamoyl) disulfide] | – | Solubility in water (at 22 C.): Soluble in water <0.1 g/100 mL at 22 C.
NC(=O)N1c2ccccc2CC(=O)c2ccccc21 [OXCARBAZEPINE, 10,11-Dihydro-10-oxo-5H-dibenz[b,f]azepine-5-carboxamide] | Freely soluble in water, in alcohol, and in dichloromethane | –
[Li] [LITHIUM] | – | Solubility in water (at 22 C.): water 0.1-0.5 g/100 mL
Cc1nnc2n1-c1ccc(Cl)cc1C(c1ccccc1Cl)=NC2 [TRIAZOLAM, 8-chloro-6-(o-chlorophenyl)-1-methyl-4H-s-triazolo-(4,3-alpha)(1,4) benzodiazepine] | practically insoluble in water and soluble in alcohol and in acetone | –
O=C1Nc2ccc(Cl)cc2C(c2ccccc2Cl)=NC1O (stereo not shown) [LOREZAPAM, 7-chloro-5-(0-chlorophenyl)-1,3-dihydro-3-hydroxy-2H-1,4-benzo-diazepin-2-one] | Very soluble in organic solvents. | –
CCc1nn(CCCN2CCN(c3cccc(Cl)c3)CC2)c(=O)n1CCOc1ccccc1 [NEFAZODONE, 2-(3-(4-(3-chlorophenyl)-1-piperazinyl)propyl)-5-ethyl-2,4-dihydro-4-(2-phenoxyethyl)-3H-1,2,4-triazol-3-one] | – | Solubility in water (at 25 C.): Soluble in water <0.1 g/100 mL at 25 C.
CC(NC(C)(C)C)C(=O)c1cccc(Cl)c1.Cl (stereo not shown) [BUPROPION, 1-(3-chlorophenyl)-2-[(1,1-dimethylethyl)amino]-1-propanone hydrochloride] | freely soluble in water and soluble in alcohol and in chloroform. | –
O=C(O)c1ccccc1O [SALICYLIC ACID, 2-Hydroxybenzoic acid] | almost insoluble in water | –
Cl.O=c1n(CCCN2CCN(c3cccc(Cl)c3)CC2)nc2ccccn12 [TRAZODONE] | – | Solubility in water (at 20 C.): insoluble in water <0.1 g/100 mL at 20 C.
(−)-trans-4R-(4′- fluorophenyl)-3S-((3′,4′- methylenedioxyphenoxy) methyl)piperidine [PAROXETINE] | soluble in alcohol and poorly soluble in water | –
CN(C)CCCN1c2ccccc2CCc2ccccc21 [IMIPRAMINE, 10,11-dihydro-N,N-dimethyl-5H-Dibenz[b,f]azepine-5-propanamine] | insoluble in the common organic solvents, but very soluble in water. | –
Cc1nnc2n1-c1ccc(Cl)cc1C(c1ccccc1)=NC2 [ALPRAZOLAM, 8-Chloro-1-methyl-6-phenyl-4H-s-triazolo(4,3-a) (1,4) benzodiazepine] | very slightly soluble in water | –
CC1=CC(=O)N2CC(=O)N(C)c3ccc(Cl)cc3C2(c2ccccc2)O1 (stereo not shown) [KETAZOLAM, 11-Chloro-8,12b-dihydro-2,8-dimethyl-12b-phenyl-4H-[1,3]oxazino[3,2-d][1,4]benzodiazepine-4,7(6H)-dione] | Practically insoluble in water; slightly soluble in alcohol; freely soluble in chloroform | –
O=C(CCCN1CCC(O)(c2ccc(Cl)cc2)CC1)c1ccc(F)cc1 [HALOPERIDOL, 4-[4-(p-chlorophenyl)-4-hydroxypiperidino]-4′-fluorobutyrophenone] | sparingly soluble in water and soluble in ethanol | –
CN1CCN(CC/C=C2/c3ccccc3Sc3ccc(S(=O)(=O)N(C)C)cc32)CC1 [THIOTHIXINE, cis isomer of N,N-dimethyl-9-[…]3-(4-methyl-1-piperazinyl)-propylidene[…] thioxanthene-2-sulfonamide.] | Slightly soluble in water; soluble in alcohol and in methyl alcohol | –
